The source of these data is PubChem BioAssay (NCI).

Some test systems named below: 786-0 renal; A549 NSCLC; ACHN renal; IGROV1 ovarian; K-562 leukemia; NCI-H226 lung; RXF 393 renal; SK-MEL-5 melanoma; COLO 205 colon.
What all share (assay): NCI anticancer screen, dose series, 48 h

The structures appear in SMILES notation.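 Compound exposure: 48 hours, 5 concentrations, 96-well plates. Here, GI50 denotes the concentration required for 50% inhibition of growth. TGI marks complete inhibition of growth.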

Turning to `Cc1ccc(NC(=O)CC2C(=O)Nc3ccccc3S2(=O)=O)cc1C` (stereo not given), the TGI in the test on 786-0 renal, in the test on A549 NSCLC, in the test on ACHN renal, with IGROV1 ovarian, with K-562 leukemia and with NCI-H226 lung was greater than 100 µM each time. Besides, the TGI with RXF 393 renal and in the test with SK-MEL-5 melanoma was greater than 100 µM throughout.

With `CCOc1cc[n+](C(=C=[N-])C#N)cc1`, the TGI with 786-0 renal, in the test on A549 NSCLC, in the test on COLO 205 colon, with IGROV1 ovarian, in the test on K-562 leukemia and in the test on NCI-H226 lung was greater than 100 µM in each case. Further, the TGI in the test with RXF 393 renal and in the test with SK-MEL-5 melanoma was greater than 100 µM throughout.

For `C/C(=N\NS(=O)(=O)c1ccccc1)c1ccc[n+]([O-])n1`, the TGI in the test on 786-0 renal, with A549 NSCLC, in the test with ACHN renal, in the test with IGROV1 ovarian, with K-562 leukemia and in the test on SK-MEL-5 melanoma was greater than 100 µM each time.

Regarding `CCOc1ccccc1NC(=O)C(=O)c1c(O)c2ccc(O)cc2oc1=O`, the TGI with 786-0 renal, with A549 NSCLC, in the test on ACHN renal, in the test with COLO 205 colon, with IGROV1 ovarian and in the test on K-562 leukemia was greater than 100 µM throughout. Further, the TGI in the test on NCI-H226 lung, in the test with RXF 393 renal and in the test with SK-MEL-5 melanoma was greater than 100 µM throughout.

With `C=C1CC(CC(=O)C(C)CC2CC(=C)C(=O)O2)OC1=O` (stereo not given), the TGI was 43.3 µM in the test with 786-0 renal; greater than 100 µM in the test on A549 NSCLC; 35.1 µM in the test on ACHN renal; 27.1 µM with COLO 205 colon; greater than 100 µM with IGROV1 ovarian; 89.6 µM in the test with K-562 leukemia. Moreover, the TGI in the test with RXF 393 renal was 37.9 µM; in the test with SK-MEL-5 melanoma, greater than 100 µM.

Regarding `Cc1ccc(SSCCCCS(=O)O)cc1`, the TGI with 786-0 renal is greater than 100 µM; with A549 NSCLC, 70.6 µM; in the test with ACHN renal, 62.7 µM; with COLO 205 colon, 39.7 µM; in the test on IGROV1 ovarian, 18.8 µM; in the test with K-562 leukemia it was greater than 100 µM. The figures for the TGI with RXF 393 renal and in the test on SK-MEL-5 melanoma were 29.1 µM and 25.6 µM, respectively.

In the case of `CCCCCCC(=O)CC(=O)C(=O)Nc1ccccc1C`, the TGI in the test with 786-0 renal, in the test with A549 NSCLC, in the test with ACHN renal, with COLO 205 colon, with IGROV1 ovarian and in the test on K-562 leukemia was greater than 100 µM in each case. Besides, the TGI in the test with NCI-H226 lung, with RXF 393 renal and in the test with SK-MEL-5 melanoma was greater than 100 µM each time.

As to `Cc1c(C(=O)Nc2ccc(Cl)cc2)nc(N)nc1-c1cccc(Cl)c1`, the TGI in the test with 786-0 renal, in the test on A549 NSCLC, in the test on ACHN renal, in the test on COLO 205 colon, with IGROV1 ovarian and in the test on K-562 leukemia was greater than 100 µM throughout. Moreover, the TGI in the test on NCI-H226 lung, in the test with RXF 393 renal and in the test on SK-MEL-5 melanoma was greater than 100 µM in each case.

Take `Nc1ncnc2c1ncn2COC/C=C/I`: the TGI with 786-0 renal, in the test with A549 NSCLC, in the test with ACHN renal, in the test with COLO 205 colon, with IGROV1 ovarian and in the test on K-562 leukemia was greater than 100 µM each time. In addition, the TGI with NCI-H226 lung, in the test with RXF 393 renal and with SK-MEL-5 melanoma was greater than 100 µM throughout.

With `CC1=C(C(=O)NCc2ccccc2)C(c2ccccc2O)C(C(=O)NCc2ccccc2)=C(C)N1`, the TGI with 786-0 renal was 33.7 µM; in the test on A549 NSCLC it was 44.6 µM; in the test with ACHN renal, 30.9 µM; in the test on COLO 205 colon, 30.9 µM; in the test on IGROV1 ovarian, 39 µM; in the test with K-562 leukemia, 88.9 µM. The results for the TGI with NCI-H226 lung, in the test on RXF 393 renal and in the test on SK-MEL-5 melanoma were 30.8 µM, 34.4 µM and 28.6 µM, respectively.

For the compound `CC(=O)Nc1ccccc1S(=O)c1ccccc1` (stereo not given), the TGI in the test with 786-0 renal, with A549 NSCLC, in the test on ACHN renal, with COLO 205 colon, with IGROV1 ovarian and in the test on K-562 leukemia was greater than 100 µM in each case. In addition, the TGI with NCI-H226 lung, in the test with RXF 393 renal and in the test on SK-MEL-5 melanoma was greater than 100 µM in each case.

For the compound `NNC(=O)N/N=C1/C(=O)N(c2ccc(Cl)c(Cl)c2)C(=O)C(=O)C1c1nc2ccccc2o1` (stereo not given), the TGI in the test on 786-0 renal, in the test with A549 NSCLC, with ACHN renal, in the test on COLO 205 colon, with IGROV1 ovarian and in the test with K-562 leukemia was greater than 100 µM throughout. Further, the TGI in the test on NCI-H226 lung and in the test on SK-MEL-5 melanoma was greater than 100 µM each time.

For the compound `CCN(CC)c1ccc(N=C2C=CC(=C(C#N)C#N)c3ccccc32)c(C)c1`, the TGI in the test on 786-0 renal was 6.24 µM; in the test with A549 NSCLC, 5.33 µM; with ACHN renal, 10.9 µM; in the test on COLO 205 colon, 8.05 µM; in the test with IGROV1 ovarian, 8.86 µM; in the test with K-562 leukemia, 5.47 µM. For the same compound, the TGI in the test on RXF 393 renal turned out to be 3.24 µM; with SK-MEL-5 melanoma, 2.92 µM.

Take `Cc1ccccc1NC(=O)CC(=O)n1nc(-c2ccccc2)c(N=Nc2ccc([N+](=O)[O-])cc2)c1-c1ccccc1`: the TGI was 67.1 µM with 786-0 renal; 41.8 µM with A549 NSCLC; 44.5 µM with ACHN renal; 30.5 µM in the test on COLO 205 colon; greater than 100 µM in the test with IGROV1 ovarian; 48.9 µM with K-562 leukemia. Besides, the TGI was 58.4 µM in the test on NCI-H226 lung, 82 µM in the test with RXF 393 renal and 25.9 µM in the test on SK-MEL-5 melanoma.

On to `COc1ccc(S(=O)(=O)N/N=C/CN2C(=O)c3ccccc3C2=O)cc1`, for which the TGI in the test with 786-0 renal, with A549 NSCLC, with ACHN renal, in the test on COLO 205 colon, with IGROV1 ovarian and with K-562 leukemia was greater than 100 µM each time. The TGI in the test on NCI-H226 lung, in the test on RXF 393 renal and in the test with SK-MEL-5 melanoma was greater than 100 µM in each case.

Take `CCN1C(=O)N(CC)C2C1NN=c1s/c(=C\c3cnc(C)n3C)c(=O)n12` (stereo not given): the GI50 in the test with 786-0 renal is 6.54 µM; in the test with A549 NSCLC, 3.99 µM; in the test with ACHN renal it was 5.94 µM; in the test with COLO 205 colon, 1.63 µM; in the test on IGROV1 ovarian, 4.37 µM; in the test on K-562 leukemia, 0.61 µM. Besides, the GI50 in the test on NCI-H226 lung was greater than 100 µM; with RXF 393 renal it was 1.2 µM; with SK-MEL-5 melanoma it was 1.2 µM. The TGI with 786-0 renal was greater than 100 µM; with A549 NSCLC, greater than 100 µM; in the test on ACHN renal, greater than 100 µM; in the test with COLO 205 colon it was 4.88 µM; with IGROV1 ovarian, greater than 100 µM; with K-562 leukemia, greater than 100 µM. Further, the results for the TGI in the test on NCI-H226 lung, with RXF 393 renal and with SK-MEL-5 melanoma were greater than 100 µM, 5.38 µM and 11.1 µM, respectively.

Consider `NC(C(=O)O)c1ccc(C(=O)O)cc1` (stereo not given), for which the TGI in the test on 786-0 renal, with A549 NSCLC, in the test on ACHN renal, in the test on COLO 205 colon, with IGROV1 ovarian and in the test with K-562 leukemia was greater than 100 µM in each case. For the same compound, the TGI in the test with NCI-H226 lung, in the test on RXF 393 renal and with SK-MEL-5 melanoma was greater than 100 µM each time.

As for `C#Cc1ccccc1N1C(=O)C=CC1=O`, the TGI with 786-0 renal, in the test with A549 NSCLC, in the test with ACHN renal, in the test with COLO 205 colon, in the test on IGROV1 ovarian and in the test with K-562 leukemia was greater than 100 µM throughout. The TGI in the test on NCI-H226 lung and in the test with SK-MEL-5 melanoma was greater than 100 µM throughout.

For the compound `O=C1OC(=O)C2C1C1C(c3ccccc3)=C(c3ccccc3)C2(O)C2C(=O)OC(=O)C12` (stereo not given), the TGI with 786-0 renal, with A549 NSCLC, in the test with ACHN renal, in the test with COLO 205 colon, with IGROV1 ovarian and in the test with K-562 leukemia was greater than 100 µM throughout. Also, the TGI in the test with NCI-H226 lung is greater than 100 µM.

`CCCCCC/C(CC(=O)CCC(=O)NCCc1ccccc1)=N\NC(=O)c1ccc2ccccc2c1O`: the TGI with 786-0 renal, with A549 NSCLC, with ACHN renal, with COLO 205 colon, with IGROV1 ovarian and in the test with NCI-H226 lung was greater than 100 µM throughout. Also, the TGI in the test with RXF 393 renal is greater than 100 µM; in the test with SK-MEL-5 melanoma, 69.5 µM.

Consider `OCC(O)C(OC1OC(CO)C(O)C(O)C1O)c1nn(-c2ccc(Cl)cc2)c2nc3cc(Cl)ccc3nc12` (stereo not given), for which the TGI in the test on 786-0 renal, with ACHN renal, in the test with K-562 leukemia and in the test with RXF 393 renal was greater than 100 µM throughout.

With `ClCCCN1CCCCC1CCl` (stereo not given), the TGI in the test with 786-0 renal, in the test with A549 NSCLC, in the test with ACHN renal, in the test with COLO 205 colon, with IGROV1 ovarian and in the test on K-562 leukemia was greater than 100 µM in each case. For the same compound, the TGI with RXF 393 renal and in the test on SK-MEL-5 melanoma was greater than 100 µM throughout.

Regarding `COc1ccc2c(c1)C(=O)c1c-2n(CCCNCCO)c(=O)c2cc([N+](=O)[O-])ccc12`, the GI50 with 786-0 renal is less than 0.01 µM; with ACHN renal, less than 0.01 µM; in the test on COLO 205 colon it was 0.018 µM; in the test on IGROV1 ovarian, 0.0283 µM; in the test with NCI-H226 lung it was 0.0477 µM; in the test on SK-MEL-5 melanoma, less than 0.01 µM. Further, the TGI with 786-0 renal was less than 0.01 µM; in the test on ACHN renal it was less than 0.034 µM; in the test on COLO 205 colon, 2.01 µM; with IGROV1 ovarian it was 1.81 µM; with NCI-H226 lung it was 0.97 µM; in the test with SK-MEL-5 melanoma, less than 0.0251 µM.
